Results on 30 compounds are retold here after US6780875B2, “Quinoline-4-carboxamide derivatives as NK-3 and NK-2 receptor antagonists” (SmithKline Beecham S.p.A., priority 1998, dated 2004).

Structures are written as SMILES. Counter-ions that a name gives are not always drawn.

The melting point is the temperature of the solid-liquid transition.

In turn, `C[C@H](NC(=O)c1c(CN2CCN(C(=NS(C)(=O)=O)N3CCCC3)CC2)c(-c2ccccc2)nc2ccccc12)C1CCCCC1` [Example 84, 3-[4-(1-Methanesulfonylimino-1-pyrrolidin-1-yl-methyl)-piperazin-1-ylmethyl]-2-phenyl-quinoline-4-carboxylic acid ((S)-1-cyclohexyl-ethyl)-amide] yielded a melting point of 130 to 140 °C.
The figure for `C[C@H](NC(=O)c1c(CN2CCN(Cc3ccccc3)CC2)c(-c2ccccc2)nc2ccccc12)C1CCCCC1` (as salt: HCl) is 176 to 179 °C; for `CC[C@H](NC(=O)c1c(CN2CCC(N3CCC(O)CC3)CC2)c(-c2ccccc2)nc2ccccc12)c1ccccc1` [Example 18, 3-(4-Hydroxy-[1,4′]bipiperidinyl-1′-ylmethyl)-2-phenyl-quinoline-4-carboxylic acid ((S)-1-phenyl-propyl)-amide] it is 166 to 168 °C; for `C[C@H](NC(=O)c1c(CN2CCN(C(=NC#N)N3CCCC3)CC2)c(-c2ccccc2)nc2ccccc12)C1CCCCC1` [Example 76, 3-[4-(1-Cyanoimino-1-pyrrolidin-1-yl-methyl)-piperazin-1-ylmethyl]-2-phenyl-quinoline-4-carboxylic acid ((S)-1-cyclohexyl-ethyl)-amide] it is 154 to 155 °C.
The figure for `CC[C@H](NC(=O)c1c(CN2CCN(CCOCCO)CC2)c(-c2ccccc2)nc2ccccc12)c1ccccc1` [Example 15, 3-{4-[2-(2-Hydroxy-ethoxy)-ethyl]-piperazin-1-ylmethyl}-2-phenyl-quinoline-4-carboxylic acid ((S)-1-phenyl-propyl)-amide] is 158 to 160 °C; for `C[C@H](NC(=O)c1c(CN2CCN(CCc3ccccc3)CC2)c(-c2ccccc2)nc2ccccc12)C1CCCCC1` (as salt: HCl) [Example 5, 3-(4-Phenethyl-piperazin-1-ylmethyl)-2-phenyl-quinoline-4-carboxylic acid ((S)-1-cyclohexyl-ethyl)-amide] it is 168 to 171 °C.
For `CC[C@H](NC(=O)c1c(CN2CCN(c3ccccn3)CC2)c(-c2ccccc2)nc2ccccc12)c1ccccc1` [Example 56, 2-Phenyl-3-(4-pyridin-2-yl-piperazin-1-ylmethyl)-quinoline-4-carboxylic acid ((S)-1-phenyl-propyl)-amide], the melting point fell in the range of 125 to 126 °C.
In the case of `CCN(CC)CCC(=O)N1CCN(Cc2c(-c3ccccc3)nc3ccccc3c2C(=O)N[C@@H](C)C2CCCCC2)CC1` [Example 47, 3-[4-(3-Diethylamino-propanoyl)-piperazin-1-ylmethyl]-2-phenyl-quinoline-4-carboxylic acid ((S)-1-cyclohexyl-ethyl)-amide], the melting point is 104 to 106 °C.
`CC[C@H](NC(=O)c1c(CN2CCC3(CC2)C(=O)NCN3c2ccccc2)c(-c2ccccc2)nc2ccccc12)c1ccccc1` displayed a melting point of 242 to 245 °C.
`CC[C@H](NC(=O)c1c(CN2CCN(C3CCCCC3)CC2)c(-c2ccccc2)nc2ccccc12)c1ccccc1` (as salt: HCl) [Example 1, 3-(4-Cyclohexyl-piperazin-1-ylmethyl)-2-phenyl-quinoline-4-carboxylic acid ((S)-1-phenyl-propyl)-amide]: the melting point was in the range of 261 to 263 °C.
In turn, `CC[C@H](NC(=O)c1c(CN2CCC3(CC2)CNC(=O)C3)c(-c2ccccc2)nc2ccccc12)c1ccccc1` [Example 63, 3-(3-Oxo-2,8-diaza-spiro[4.5]dec-8-ylmethyl)-2-phenyl-quinoline-4-carboxylic acid ((S)-1-phenyl-propyl)-amide] returned a melting point of 129 to 131 °C.
On to `CC[C@H](NC(=O)c1c(CN2CCC(N3CCOCC3)CC2)c(-c2ccccc2)nc2ccccc12)c1ccccc1` [Example 19, 3-(4-Morpholin-4-yl-piperidin-1-ylmethyl)-2-phenyl-quinoline-4-carboxylic acid ((S)-1-phenyl-propyl)-amide], for which the melting point was in the range of 157 to 165 °C.
The figure for `C[C@H](NC(=O)c1c(CN2CCN(C(=O)c3ccccc3C(=O)O)CC2)c(-c2ccccc2)nc2ccccc12)C1CCCCC1` [Example 87, 2-(1-{4-[4-((S)-1-Cyclohexyl-ethylcarbamoyl)-2-phenyl-quinolin-3-ylmethyl]-piperazin-1-yl}-methanoyl)-benzoic acid] is 209 to 211 °C; for `CC[C@H](NC(=O)c1c(CN2CCN3CCCC3C2)c(-c2ccccc2)nc2ccccc12)c1ccccc1` (stereo partly drawn) (as salt: HCl) [Example 49, 3-(Hexahydro-pyrrolo[1,2-a]pyrazin-2-ylmethyl)-2-phenyl-quinoline-4-carboxylic acid ((S)-1-phenyl-propyl)-amide] it is 196 to 198 °C.
In turn, `CC[C@H](NC(=O)c1c(CN2CCC(N3CCCCC3)CC2)c(-c2ccccc2)nc2cc(OC)ccc12)c1ccccc1` (as salt: hydrochloride) [Example 67, 3-[1,4′]Bipiperidinyl-1′-ylmethyl-7-methoxy-2-phenyl-quinoline-4-carboxylic acid ((S)-1-phenyl-propyl)-amide] showed a melting point of 208 to 210 °C.
`COCCN(CCOC)Cc1c(-c2ccccc2)nc2ccccc2c1C(=O)N[C@@H](C)C1CCCCC1` [Example 58, 3-{[Bis-(2-methoxy-ethyl)-amino]-methyl}-2-phenyl-quinoline-4-carboxylic acid ((S)-1-cyclohexyl-ethyl)-amide] came in with a melting point of 114 to 115 °C.
The figure for `C[C@H](NC(=O)c1c(CN2CCN(CCO)CC2)c(-c2ccccc2)nc2ccccc12)C1CCCCC1` [Example 29, 3-[4-(2-Hydroxy-ethyl)-piperazin-1-ylmethyl]-2-phenyl-quinoline-4-carboxylic acid ((S)-1-cyclohexyl-ethyl)-amide] is 95 to 105 °C; for `CC[C@H](NC(=O)c1c(C(c2ccccc2)(N2CCCCC2)N(C)C(C)=O)c(-c2ccccc2)nc2ccccc12)c1ccccc1` (stereo partly drawn) [Example 11, 3-[(Acetyl-methyl-amino)-phenyl-piperidin-1-ylmethyl]-2-phenyl-quinoline-4-carboxylic acid ((S)-1-phenyl-propyl)-amide] it is 100 °C (dec.); for `C[C@H](NC(=O)c1c(CN2CCN(C(=O)c3ccccc3)CC2)c(-c2ccccc2)nc2ccccc12)C1CCCCC1` [Example 24, 2-Phenyl-3-[4-(1-phenyl-methanoyl)-piperazin-1-ylmethyl]-quinoline-4-carboxylic acid ((S)-1-cyclohexyl-ethyl)-amide] it is 150 to 152 °C.
For the compound `CCN(CC)CCC(=O)N1CCN(Cc2c(-c3ccccc3)nc3ccccc3c2C(=O)N[C@H](c2ccccc2)C(C)C)CC1` [Example 80, 3-[4-(3-Diethylamino-propanoyl)-piperazin-1-ylmethyl]-2-phenyl-quinoline-4-carboxylic acid ((S)-2-methyl-1-phenyl-propyl)-amide], the melting point lay within 120 to 125 °C.
Next, `CC(C)N1CCN(Cc2c(-c3ccccc3)nc3ccccc3c2C(=O)N[C@@H](C)C2CCCCC2)CC1` (as salt: hydrochloride) [Example 4, 3-(4-Isopropyl-piperazin-1-ylmethyl)-2-phenyl-quinoline-4-carboxylic acid ((S)-1-cyclohexyl-ethyl)-amide]: 180 to 183 °C.
As for `CCN1CCN(Cc2c(-c3ccccc3)nc3ccccc3c2C(=O)N[C@@H](C)C2CCCCC2)CC1` (as salt: HCl) [Example 37, 3-(4-Ethyl-piperazin-1-ylmethyl)-2-phenyl-quinoline-4-carboxylic acid ((S)-1-cyclohexyl-ethyl)-amide], the melting point was 188 to 190 °C.
`CC[C@H](NC(=O)c1c(CN2CCN(CCO)CC2)c(-c2ccccc2)nc2ccccc12)c1ccccc1` [Example 28, 3-[4-(2-Hydroxy-ethyl)-piperazin-1-ylmethyl]-2-phenyl-quinoline-4-carboxylic acid ((S)-1-phenyl-propyl)-amide] showed a melting point of 142 to 144 °C.
Take `CC[C@H](NC(=O)c1c(CN2CCC(N3CCCCC3)CC2)c(-c2ccccc2)nc2cc(O)ccc12)c1ccccc1` [Example 95, 3-[1,4′]Bipiperidinyl-1′-ylmethyl-7-hydroxy-2-phenyl-quinoline-4-carboxylic acid ((S)-1-phenyl-propyl)-amide]: the melting point fell in the range of 158 to 162 °C.
Next, `CNC(=S)N1CCN(Cc2c(-c3ccccc3)nc3ccccc3c2C(=O)N[C@@H](C)C2CCCCC2)CC1` [Example 75, 3-(4-Methylthiocarbamoyl-piperazin-1-ylmethyl)-2-phenyl-quinoline-4-carboxylic acid ((S)-1-cyclohexyl-ethyl)-amide]: 204 to 206 °C.
In turn, `CC[C@H](NC(=O)c1c(CN2CCC(N3CCCCC3)CC2)c(-c2ccccc2)nc2c(Br)c(OC)ccc12)c1ccccc1` [Example 66, 3-[1,4′]Bipiperidinyl-1′-ylmethyl-8-bromo-7-methoxy-2-phenyl-quinoline-4-carboxylic acid ((S)-1-phenyl-propyl)-amide] displayed a melting point of 156 to 160 °C.
Compound `CC(C)[C@H](NC(=O)c1c(CN2CCN(C(=O)CCC(=O)O)CC2)c(-c2ccccc2)nc2ccccc12)c1ccccc1` [Example 85, 4-{4-[4-((S)-2-Methyl-1-phenyl-propylcarbamoyl)-2-phenyl-quinolin-3-ylmethyl]-piperazin-1-yl}-4-oxo-butyric acid] came in with a melting point of 173 to 175 °C.
`C[C@H](NC(=O)c1c(CN2CCN(CC(=O)O)CC2)c(-c2ccccc2)nc2ccccc12)C1CCCCC1` [Example 92, {4-[4-((S)-1-Cyclohexyl-ethylcarbamoyl)-2-phenyl-quinolin-3-ylmethyl]-piperazin-1-yl}-acetic acid] had a melting point of 188 to 195 °C.
The figure for `C[C@H](NC(=O)c1c(CN2CCC(N3CCOCC3)CC2)c(-c2ccccc2)nc2ccccc12)C1CCCCC1` [Example 42, 3-(4-Morpholin-4-yl-piperidin-1-ylmethyl)-2-phenyl-quinoline-4-carboxylic acid ((S)-1-cyclohexyl-ethyl)-amide] is 135 to 137 °C; for `C[C@H](NC(=O)c1c(CN2CCOCC2)c(-c2ccccc2)nc2ccccc12)C1CCCCC1` [Example 54, 3-Morpholin-4-ylmethyl-2-phenyl-quinoline-4-carboxylic acid ((S)-1-cyclohexyl-ethyl)-amide] it is 178 to 180 °C.
